From patent publication US7345070B2, “Peroxisome proliferator activated receptor agonists” (Eli Lilly and Company, priority 2000, dated 2008) come the findings set out here.

For test [1], the target named is T1, huPPARα (Homo sapiens, UniProt Q07869).
T1 sequence (Q07869 1-468): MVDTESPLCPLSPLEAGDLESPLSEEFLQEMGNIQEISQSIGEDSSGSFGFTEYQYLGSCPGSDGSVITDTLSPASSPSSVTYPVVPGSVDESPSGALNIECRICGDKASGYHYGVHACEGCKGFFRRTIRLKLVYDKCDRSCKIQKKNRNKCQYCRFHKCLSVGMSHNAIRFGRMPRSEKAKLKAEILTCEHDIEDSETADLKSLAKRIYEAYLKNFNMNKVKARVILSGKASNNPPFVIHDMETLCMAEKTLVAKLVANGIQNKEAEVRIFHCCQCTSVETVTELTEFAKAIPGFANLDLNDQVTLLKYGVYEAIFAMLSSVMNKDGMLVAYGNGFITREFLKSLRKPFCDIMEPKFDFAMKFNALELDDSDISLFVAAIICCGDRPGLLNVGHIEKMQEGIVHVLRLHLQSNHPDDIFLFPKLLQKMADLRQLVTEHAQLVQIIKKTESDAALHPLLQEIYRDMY
T1 sequence (P19793 1-462 partner): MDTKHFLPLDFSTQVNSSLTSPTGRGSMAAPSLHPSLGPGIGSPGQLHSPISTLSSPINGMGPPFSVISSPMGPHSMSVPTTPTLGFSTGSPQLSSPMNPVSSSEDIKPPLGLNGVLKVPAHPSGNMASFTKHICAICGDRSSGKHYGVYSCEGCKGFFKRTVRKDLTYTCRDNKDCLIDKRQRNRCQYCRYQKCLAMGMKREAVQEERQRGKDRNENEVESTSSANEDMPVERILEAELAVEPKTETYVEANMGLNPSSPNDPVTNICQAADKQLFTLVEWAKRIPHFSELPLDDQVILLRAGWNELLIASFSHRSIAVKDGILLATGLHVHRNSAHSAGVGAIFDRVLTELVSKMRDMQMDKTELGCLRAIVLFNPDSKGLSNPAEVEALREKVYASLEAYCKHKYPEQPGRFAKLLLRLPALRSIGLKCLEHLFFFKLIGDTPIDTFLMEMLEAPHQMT
Put plainly: DNA-dependent binding (ABCD binding) using SPA technology, huPPARα. The conditions noted are these: SPA displacement of tritium-labeled PPARα agonist radioligand. Put shortly:
(§1)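 Binding: SPA displacement of tritiated PPARα or PPARγ agonist, giving IC50. Cotransfection: CV-1 cells with CMV-driven PPAR and RXRα, luciferase reporter (AOX PPRE/TK or GAL4 chimera); efficacy relative to PPARα or PPARγ reference agonists, from curve fit or at 10 μM.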

Test [2] deals with T2, huPPARγ (Homo sapiens, UniProt P37231).
T2 sequence (P37231 1-505): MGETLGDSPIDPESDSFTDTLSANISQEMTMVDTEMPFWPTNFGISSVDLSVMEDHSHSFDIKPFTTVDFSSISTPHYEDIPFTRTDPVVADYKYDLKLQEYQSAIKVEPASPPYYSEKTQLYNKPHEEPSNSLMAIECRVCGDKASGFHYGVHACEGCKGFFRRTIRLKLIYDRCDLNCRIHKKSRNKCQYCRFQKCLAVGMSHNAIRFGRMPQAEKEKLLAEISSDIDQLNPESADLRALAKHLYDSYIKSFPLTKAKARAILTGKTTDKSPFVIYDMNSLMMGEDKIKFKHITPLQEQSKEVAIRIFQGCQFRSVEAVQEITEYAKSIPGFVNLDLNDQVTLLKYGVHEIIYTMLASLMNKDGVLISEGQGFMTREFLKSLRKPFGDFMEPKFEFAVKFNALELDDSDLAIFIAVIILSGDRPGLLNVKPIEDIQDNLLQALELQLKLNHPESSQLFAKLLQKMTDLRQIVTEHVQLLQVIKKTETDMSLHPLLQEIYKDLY
T2 sequence (P19793 1-462 partner): T1 sequence (P19793 1-462 partner)
Put plainly: DNA-dependent binding (ABCD binding) using SPA technology, huPPARγ. The conditions noted are these: SPA displacement of tritium-labeled PPARγ agonist radioligand. In a few lines: as §1

Test [3] relates to huPPARα. Put plainly: Cotransfection assay in CV-1 cells, huPPARα. Format: cell-based, human. The conditions noted are these: GAL4 chimeric system, relative to PPARα agonist reference molecule. In a few lines:
as §1

Test [4] deals with T2, huPPARγ. Put plainly: Cotransfection assay in CV-1 cells, huPPARγ. The conditions noted are these: AOX PPRE luciferase reporter, relative to PPARγ agonist reference molecule, read-out: huPPARγ CTF Efficacy. Further details: Appropriate PPARs and RXRα were constitutively expressed using plasmids containing the CMV promoter; expressed in transfected cells; host or cells: CV-1 cells. The test is classed as cell-based. Put shortly:
as §1
On the technique in general: In a reporter assay the amount or activity of a reporter protein is the signal.

`Cc1oc(C2(C)CCCCC2)nc1CCOc1ccc(CC(C)(Oc2ccccc2)C(=O)O)cc1` (stereo not shown) [Example 9, 2-Methyl-3-(4-{2-[5-methyl-2-(1-methylcyclohexyl)oxazol-4-yl]ethoxy}phenyl)-2-phenoxypropionic acid]: the concentration for half-maximal inhibition (IC50) (as a rule, the concentration at which inhibition is half-maximal) worked out at 41 nM in test [1] and 11 nM in test [2]. Also, the “huPPARα CTF Efficacy” value in test [3] is given as 61%. Also, in test [4], the Emax stood at 73%.
